Measured values taken from patent US7442855B2, “Insecticidal plant cyclotide with activity against Homopteran insects” (E. I. du Pont De Nemours and Company, priority 2004, dated 2008).
Where a SMILES comes first, the peptide text is derived from it. Bridges are numbered along the chain shown (N, C = ends).

How the values were obtained:
Peregrinus maidis = assay: Dose response insect-feeding assay for E5 against Peregrinus maidis (sucrose/parafilm membrane, mortality scored after 72 hours); format: in vivo; settings: adult insects, two replicates
Procedure: (§1) To test for the insecticidal activity of cyclotide E5 against the target homopteran pests, the lyophilized fractionated samples were placed in 96-well microtiter plates, resuspended in H2O and added to a 20% sucrose solution as detailed below. Parafilm was stretched to just short of its breaking point and used to seal the sucrose/sample reservoir. Adult insects were then added on top of the membrane in a second chamber such that the base of the insect enclosure was the parafilm membrane. The top of the insect chamber was then sealed with plastic wrap and punctured for air exchange. The number of insects feeding from each well was determined. The assay was scored after 72 hours and nsecticidal activity was measured based on insect mortality.
(§2) Specifically, for the dose-response assay results shown in Tables 1 and 2, lyophilized RP-HPLC-pure sample was resuspended in 300 μL H2O and added to 20% sucrose in the following volumes: 60, 45, 25, 10, and 5 μL. Two replicates per dose were prepared, including two negative controls. After 72 hours, the wells were scored for insect mortality.

Aphis glycines = assay: Dose response insect-feeding assay for E5 against Aphis glycines (sucrose/parafilm membrane, mortality scored after 72 hours); format: in vivo; settings: adult insects, two replicates
Procedure: as §1, §2

CC[C@H](C)[C@@H]1NC(=O)[C@H](Cc2ccc(O)cc2)NC(=O)[C@H](C(C)C)NC(=O)[C@@H]2CSSC[C@@H]3NC(=O)[C@H](CCCCN)NC(=O)[C@@H]4CSSC[C@H](NC(=O)[C@@H]5CCCN5C(=O)[C@H]([C@@H](C)CC)NC(=O)[C@H](CCCCN)NC(=O)[C@H](CC(N)=O)NC(=O)[C@H](Cc5ccc(O)cc5)NC(=O)[C@H](CSSC[C@H](NC(=O)CNC1=O)C(=O)N[C@@H]([C@@H](C)O)C(=O)N[C@@H](CC(C)C)C(=O)N[C@@H]([C@@H](C)O)C(=O)N[C@@H](C)C(=O)N[C@@H](CC(C)C)C(=O)N[C@@H](C)C(=O)NCC(=O)N4)NC(=O)[C@H](C(C)C)NC(=O)[C@H](CCCCN)NC(=O)[C@H](CC(N)=O)NC(=O)[C@H](CCCCN)NC3=O)C(=O)NCC(=O)N[C@@H](CCC(=O)O)C(=O)N[C@@H](CO)C(=O)N2 [E5] (cyclo(AGCKCKNKVCYNKIPCGESCVYIGCTLTAL); disulfide 3-16, 5-20, 10-25 (inferred); ring closure inferred)
average percent (%) insect mortality (Peregrinus maidis; E5 concentration 2.73 μM (5 μL)): 90% | average percent (%) insect mortality (Peregrinus maidis; E5 concentration 4.09 μM (10 μL)): 90% | average percent (%) insect mortality (Peregrinus maidis; E5 concentration 9.97 μM (25 μL)): 95% | average percent (%) insect mortality (Peregrinus maidis; E5 concentration 16.61 μM (45 μL)): 100% | average percent (%) insect mortality (Peregrinus maidis; E5 concentration 33.22 μM (60 μL)): 100% | average percent (%) insect mortality (Aphis glycines; E5 concentration 6.36 μM (5 μL)): 56.5% | average percent (%) insect mortality (Aphis glycines; E5 concentration 12.73 μM (10 μL)): 80% | average percent (%) insect mortality (Aphis glycines; E5 concentration 31.81 μM (25 μL)): 75% | average percent (%) insect mortality (Aphis glycines; E5 concentration 57.26 μM (45 μL)): 95% | average percent (%) insect mortality (Aphis glycines; E5 concentration 76.35 μM (60 μL)): 100%
